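Assay format: 96-well plates, 48-hour exposure. Here, GI50 denotes the concentration required for 50% inhibition of growth. Definition used: TGI = concentration required for complete inhibition of growth.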
Key:
Assay in all cases: inhibition of tumour cell growth, NCI panel, 48 h
KM12 colon = test system: KM12 colon
SK-MEL-5 melanoma = test system: SK-MEL-5 melanoma
SW-620 colon = test system: SW-620 colon
OVCAR-8 ovarian = test system: OVCAR-8 ovarian
SK-MEL-28 melanoma = test system: SK-MEL-28 melanoma
NCI-H460 lung = test system: NCI-H460 lung
MDA-MB-231 breast = test system: MDA-MB-231 breast
MCF7 breast = test system: MCF7 breast
A549 NSCLC = test system: A549 NSCLC
OVCAR-4 ovarian = test system: OVCAR-4 ovarian
HOP-92 NSCLC = test system: HOP-92 NSCLC
A498 renal = test system: A498 renal
HS 578T breast = test system: HS 578T breast
RXF 393 renal = test system: RXF 393 renal

SMILES | TGI (KM12 colon) | TGI (SK-MEL-5 melanoma) | TGI (SW-620 colon) | TGI (OVCAR-8 ovarian) | TGI (SK-MEL-28 melanoma) | TGI (NCI-H460 lung) | TGI (MDA-MB-231 breast) | TGI (MCF7 breast) | TGI (A549 NSCLC) | TGI (OVCAR-4 ovarian) | TGI (HOP-92 NSCLC) | TGI (A498 renal) | TGI (HS 578T breast) | TGI (RXF 393 renal) | GI50 (SK-MEL-5 melanoma) | GI50 (OVCAR-8 ovarian) | GI50 (SK-MEL-28 melanoma) | GI50 (NCI-H460 lung) | GI50 (MCF7 breast)
C1CC[C@H]2SSC3CCCC[C@H]3SSC2C1 (some centres not stated) | > 100 µM | > 100 µM | > 100 µM | > 100 µM | > 100 µM | > 100 µM | > 100 µM | > 100 µM | > 100 µM | > 100 µM | > 100 µM |  |  |  |  |  |  |  | 
O=c1cn[nH]c(=S)n1/N=C/c1c[nH]c2ccccc12 | > 100 µM | > 100 µM | > 100 µM | 93.9 µM | > 100 µM | > 100 µM |  | > 100 µM | > 100 µM | > 100 µM |  | > 100 µM | > 100 µM |  |  |  |  |  | 
COc1cc(C2C(Cl)C(=O)N2NC(=O)c2ccc(N)cc2)cc(Br)c1O (configuration not stated) | 30.7 µM | 31.7 µM | 35.1 µM | > 100 µM | 31.6 µM | 31.4 µM |  |  | 42.8 µM | 35.1 µM | 39.8 µM | 59 µM |  |  |  |  |  |  | 
C/C(=N\Nc1nc2cccnc2s1)c1ccccn1 | > 33.6 µM | 9.02 µM | > 100 µM | 0.0147 µM | > 100 µM | > 100 µM | 38.6 µM | > 54.8 µM | > 34.8 µM | 29.5 µM |  | > 100 µM |  | 19.9 µM |  |  |  |  | 
C=C[C@]1(C)CCC2=C(CCC3C2(C)CCC[C@@]3(C)COC(C)=O)C1 (some centres not stated) | 34.7 µM | 31 µM | 35.5 µM | 34.6 µM | 60.4 µM | 32.2 µM |  |  | 52.5 µM | > 100 µM | 35 µM | 54.3 µM |  | 37.8 µM |  |  |  |  | 
CC(C)(C)C1=CC(=C2C(=O)C(=O)c3ccccc3C2=O)C=C(C(C)(C)C)C1=O | > 100 µM | > 100 µM | > 100 µM | > 100 µM | > 100 µM | > 100 µM |  |  | > 100 µM |  | 82.9 µM | 0.93 µM |  |  |  |  |  |  | 
CN1CN(c2ccccc2)C2(CCN(CCC3COc4ccccc4O3)CC2)C1=O (configuration not stated) | 66.7 µM | 28.2 µM | > 100 µM | > 100 µM | 47.3 µM |  | > 100 µM | 72.4 µM | > 100 µM |  |  |  |  | > 100 µM |  |  |  |  | 
Cc1ccc(S(=O)c2sccc2C=O)cc1 (configuration not stated) | 70.3 µM | > 100 µM | 55.9 µM | 56.5 µM | 92.4 µM | 50.4 µM | > 100 µM | 43.8 µM | > 100 µM | 75 µM |  | > 100 µM | 65.9 µM | > 100 µM |  |  |  |  | 
OCCN1CCN2C=C(C3CCCC4N(CCO)CCN34)CCC21 (configuration not stated) | > 100 µM | > 100 µM | > 67.9 µM | > 100 µM | > 100 µM | > 100 µM |  |  | > 100 µM | > 100 µM | > 100 µM | > 100 µM |  | > 85 µM |  |  |  |  | 
O=C(CNC(c1ccccc1)(c1ccccc1)c1ccccc1)NC1CCCCC1NC(=O)CNC(c1ccccc1)(c1ccccc1)c1ccccc1 (configuration not stated) | > 100 µM | > 100 µM | > 100 µM | > 100 µM | > 100 µM | > 100 µM | > 100 µM | > 100 µM | > 100 µM | > 100 µM | 78.7 µM | > 100 µM | > 100 µM |  |  |  |  |  | 
Ic1cc2c(cc1C1SCCCS1)OCO2 | > 100 µM | > 100 µM | > 100 µM | > 100 µM | > 100 µM | > 100 µM |  |  | > 100 µM | > 100 µM | > 100 µM | > 100 µM |  | > 100 µM |  |  |  |  | 
OCCOc1ccccc2cccc1-2 | > 100 µM | > 100 µM | > 100 µM | > 100 µM | > 100 µM | > 100 µM | > 100 µM | > 100 µM | > 100 µM | > 100 µM | > 100 µM | > 100 µM | > 100 µM |  |  |  |  |  | 
CCCCCC/C=C1\CCC(CN2CCOCC2)C1=O (configuration not stated) | 24.7 µM | 38.4 µM | 26.7 µM | 32.7 µM | 30.7 µM | > 66 µM |  |  | > 67.3 µM | 38.8 µM | 34.7 µM | 35.2 µM |  |  |  |  |  |  | 
Brc1ccc2c(c1)-c1nc3nc4c(cc3cc1CC2)CCc1ccc(Br)cc1-4 | > 100 µM | > 100 µM | > 100 µM | > 100 µM | > 100 µM | > 100 µM | > 100 µM | > 100 µM | > 100 µM | > 100 µM | > 100 µM | > 100 µM |  | > 100 µM |  |  |  |  | 
Nc1cc(=O)n(-c2ccccc2)c(=S)n1-c1ccccc1 | > 100 µM | > 100 µM | > 100 µM | > 100 µM |  | > 100 µM |  |  | > 100 µM |  |  | > 100 µM |  | > 100 µM |  |  |  |  | 
CN1CCN(c2ccc3nc(-c4ccc5nc(-c6ccc(O)cc6)[nH]c5c4)[nH]c3c2)CC1 | 678 µM | 158 µM | 959 µM | 539 µM | 92.3 µM | 714 µM | 639 µM | 422 µM | 756 µM | 609 µM | 169 µM | 763 µM |  | 529 µM | 97.9 µM | 173 µM | 18.8 µM | 349 µM | 5.33 µM
CC(=O)OC1COC(N2C(=O)C(=O)c3cc(Br)ccc32)C(OC(C)=O)C1OC(C)=O (configuration not stated) | > 100 µM | > 100 µM | > 100 µM | > 100 µM | > 100 µM | > 100 µM |  |  | > 100 µM | > 100 µM | > 100 µM | > 100 µM |  | > 100 µM |  |  |  |  | 
COC(=O)[C@H](CC(C)C)Nc1c(O)c2c(c(O)c1Cl)C(=O)C=CC2=O | > 10 µM | > 10 µM | > 10 µM | > 10 µM | > 10 µM | > 10 µM | > 10 µM |  | > 10 µM | > 10 µM | > 10 µM | > 10 µM | > 10 µM | > 10 µM |  |  |  |  | 

— PubChem BioAssay (NCI)
